Source: article PMC2395260 (Genome Biology, 2008)
Where two headings read alike, the source gives them in different places.

What was measured:
[1] = tested on: HCV subgenomic replicon (genotype 1b) harboring the V36G mutant in Huh-7.5 cells; assay: Two-day HCV replicon assay, V36G mutant; format: cell-based, hepatitis C virus genotype 1b; settings: for IC50: Hepatitis C virus, Huh7.5, 48 h, read-out: IC50 (HCV RNA level in replicon cells reduced by 50%); for viral suppression in V36G mutant replicon assay in comparison to wild-type replicon assay: V36G versus wild-type replicon, genotype 1b, 48 h
Method: Only the SCH 503034 inhibitor is lacking the cyclopropyl group (Figure 1). We used a wild-type HCV replicon assay (genotype 1b) and an assay harboring the V36G mutant for in vitro testing. Detailed information on experimental procedures is given in Materials and methods.
SCH 503034 was synthesized by Schering-Plough Corporation (Kenilworth, NJ, USA), dissolved in dimethyl sulfoxide as a 19 mM solution. Both compounds were stored at 4°C.
The plasmid pFKI389neo/NS3-3'/ET contains HCV subgenomic replicon sequences derived from HCV genotype 1b and an upstream T7 promoter for in vitro RNA synthesis. The point mutation was generated with the QuikChange II XL Site-Directed Mutagenesis Kit (Stratagene, La Jolla, CA, USA). The plasmid was linearized with ScaI and purified by phenol chloroform extraction. The linearized and purified plasmid was transcribed by using a T7 RNA polymerase (Promega, Madison, WI, USA) according to the manufacturer's instructions. All of the plasmids and RNAs were checked for purity and integrity by standard procedures.
Huh-7.5 cells were cultured in Dulbecco's modified Eagle's medium (DMEM; Invitrogen, Carlsbad, CA, USA) containing 10% fetal bovine serum (FBS; PAA Laboratories GmbH, Pasching, Germany) and 2 mM L-glutamine. The cells were transfected with an in vitro-transcribed subgenomic HCV replicon RNA. The wild-type sequence was identical to that of the pFKI389neo/NS3-3'/ET replicon. Stable cells containing the self-replicating HCV replicon were selected and maintained in the presence of 750 μg of G418 (Invitrogen) per ml and were used for HCV replicon assays.
HCV replicon cells were plated in a 6-well plate at a density of 2 × 10^5 cells per well in DMEM with 10% FBS. On the following day (24 h later), the culture medium was replaced with DMEM containing either no compound as a control or compounds serially diluted in the presence of 10% FBS and 750 μg/ml G418. After the cells were incubated with the compounds for 48 h, the intracellular RNA was extracted with an RNeasy kit (Qiagen, Valencia, CA, USA). The level of HCV RNA was determined by a real-time quantitative reverse transcription-PCR (RT-PCR) assay (Taqman) with a pair of HCV-specific primers (5'-[…]-3' and 5'-[…]-3'), an HCV-specific probe (5'-6FAM-[…] XT-PH-3), and an ABI Prism 7000 sequence detection system (Applied Biosystems, Foster City, CA, USA).

[2] = tested on: wild-type NS3-4A protease, HCV genotype 1a (HCV-H); settings: HCV genotype 1a reference strain HCV-H; cited from earlier work
[3] = tested on: NS3-4A protease V36A/G/L/M mutants; settings: cited from earlier work
[4] = tested on: NS3-4A protease T54S mutant; settings: cited from earlier work
[5] = tested on: NS3-4A protease T54A mutant; settings: cited from earlier work
[6] = tested on: NS3-4A protease R155G/I/K/L/M/S/T mutants; settings: cited from earlier work
[7] = tested on: NS3-4A protease A156I/T/V mutants; settings: range over A156I/T/V mutants; cited from earlier work
[8] = tested on: NS3-4A protease A156S mutant; settings: cited from earlier work
[9] = tested on: HCV genotype 1; settings: phase 1b clinical trial, after treatment duration of 24 hours; cited from earlier work

SMILES	IC50 [1] [µM]	viral suppression in V36G mutant replicon assay in comparison to wild-type replicon assay [1]	IC50 [2] [nM]	IC50 ([3]; V36A/G/L/M mutants, read-out: IC50 mean) [nM]	IC50 ([3]; range over V36A/G/L/M mutants, read-out: IC50 range) [nM]	IC50 [4] [nM]	IC50 [5] [nM]	IC50 ([6]; R155G/I/K/L/M/S/T mutants, read-out: IC50 mean) [nM]	IC50 ([6]; range over R155G/I/K/L/M/S/T mutants, read-out: IC50 range) [nM]	IC50 [7] [µM]	IC50 [8] [nM]	HCV RNA decline [9]
CC(C)(C)NC(=O)N[C@H](C(=O)N1C[C@H]2[C@@H]([C@H]1C(=O)NC(CC1CCC1)C(=O)C(N)=O)C2(C)C)C(C)(C)C (some centres unmarked) [SCH 503034, boceprevir]	< 5	nearly equally effective	–	–	–	–	–	–	–	–	–	–
CCC[C@H](NC(=O)[C@@H]1[C@H]2CCC[C@H]2CN1C(=O)[C@@H](NC(=O)[C@@H](NC(=O)c1cnccn1)C1CCCCC1)C(C)(C)C)C(=O)C(=O)NC1CC1 [VX-950, telaprevir]	~5	considerably delayed	70	226	110 to 444	120	749	538	275 to 1050	12.5 to 50	1400	above 3 log
